The chains are these.
T1: human LXRα LBD (Homo sapiens, UniProt Q13133, H421A)
T1 construct: LXRα (amino acids 164-447); expressed in transfected cells; host or cells: CV-1 cells
T1 sequence (Q13133 164-447 H421A): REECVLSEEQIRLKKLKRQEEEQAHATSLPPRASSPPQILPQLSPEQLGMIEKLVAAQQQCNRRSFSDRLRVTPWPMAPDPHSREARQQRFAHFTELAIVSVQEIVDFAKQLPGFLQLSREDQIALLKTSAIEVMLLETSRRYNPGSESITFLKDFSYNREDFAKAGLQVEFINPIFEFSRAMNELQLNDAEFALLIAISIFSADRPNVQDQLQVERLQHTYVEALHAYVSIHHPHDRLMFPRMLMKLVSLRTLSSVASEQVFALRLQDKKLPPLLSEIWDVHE

T2: human LXRβ LBD (Homo sapiens, UniProt P55055, H434A)
T2 construct: LXRβ (amino acids 155-462); expressed in transfected cells; host or cells: CV-1 cells
T2 sequence (P55055 155-460 H434A): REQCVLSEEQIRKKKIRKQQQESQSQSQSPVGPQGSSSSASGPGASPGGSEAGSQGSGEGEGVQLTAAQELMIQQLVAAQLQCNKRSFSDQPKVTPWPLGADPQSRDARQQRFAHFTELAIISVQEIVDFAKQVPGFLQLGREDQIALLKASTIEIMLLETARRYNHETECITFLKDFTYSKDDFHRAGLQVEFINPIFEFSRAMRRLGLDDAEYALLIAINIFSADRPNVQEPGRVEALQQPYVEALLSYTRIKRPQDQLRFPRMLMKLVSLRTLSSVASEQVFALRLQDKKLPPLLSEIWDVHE

T3: human LXRβ LBD (Homo sapiens, UniProt P55055, Y334W)
T3 construct: LXRβ (amino acids 155-462); expressed in transfected cells; host or cells: CV-1 cells
T3 sequence (P55055 155-460 Y334W): T2 sequence (P55055 155-460 H434A) with Y180W, A280H

B1: human LXRβ LBD (ligand binding domain) containing amino acids 214-462 (receptor)
chain: GSEGEGVQLTAAQELMIQQLVAAQLQCNKRSFSDQPKVTPWPLGADPQSRDARQQRFAHFTELAIISVQEIVDFAKQVPGFLQLGREDQIALLKASTIEIMLLETARRYNHETECITFLKDFTYSKDDFHRAGLQVEFINPIFEFSRAMRRLGLDDAEYALLIAINIFSADRPNVQEPGRVEALQQPYVEALLSYTRIKRPQDQLRFPRMLMKLVSLRTLSSVHSEQVFALRLQDKKLPPLLSEIWDVHE
notes: It is entered here as the monomer, so that self-association is the pair m1-m1; also called LXR LBD

One data set concerns the target T1, human LXRα LBD. As to the kind of experiment: Gal4-LXRα LBD (wild type and mutant) transactivation, SPAP reporter, transient transfection in CV-1 cells. As to conditions: compound 10 μM, 18 hours. The format is cell-based. As to the method:
FIG. 7A is a bar graph depicting the effect of mutating LXR LBD pocket residues on transcriptional activity, which was determined by measuring the amount of SPAP synthesized in CV-1 cells by a transiently transfected Gal4 fusion of LXRα LBD.
(§1) To explore these differences, site directed mutants were made targeting specific pocket residues that interacted more directly with one compound than the other. […] However, the gauche conformation of I317 extended into a pocket near the beta turn. […] By contrast, O3 of EPC extended into a hydrophilic pocket (see FIG. 6B) which includes residues E281 (E267α), E315 (E301α), and R319 (R305α). Mutations in this region permit identification of the necessary polar interactions for EPC binding. The transactivation capability of gal4-fusions of wild-type and mutant LXRα and LXRβ LBDs were measured by their ability to transcribe secreted placental alkaline phosphatase (SPAP) on a UAS-tk promoter in transient transfection experiments in CV-1 cells. See Laboratory Example 4. […]
(§2) Wild type and mutant LXR transactivation activity was measured in CV-1 cells. […]
(§3) Alkaline phosphatase activity was assayed by adding 200 μl substrate (7 mM p-nitrophenyl phosphate in 1 M diethanolamine/0.28 M sodium chloride/0.5 mM magnesium chloride, pH 9.85) to each well of the plates, incubating at room temperature, and reading absorbance at 405 nm. […]

The target in data set [1] is T2, human LXRβ LBD. As to the kind of experiment: Gal4-LXRβ LBD (wild type and mutant) transactivation, SPAP reporter, transient transfection in CV-1 cells. It is filed as cell-based. As to conditions: LXRβ H435A mutant LBD, compound 10 μM, 18 hours. As to the method:
(§4) FIG. 7B is a bar graph depicting the effect of mutating LXR LBD pocket residues on transcriptional activity, which was determined by measuring the amount of SPAP synthesized in CV-1 cells by a transiently transfected Gal4 fusion of LXRβ LBD.
as §1, §2, §3

In data set [2] the target is T3, human LXRβ LBD. The description is as above. The format is cell-based. As to conditions: LXRβ Y335W mutant LBD, compound 10 μM, 18 hours. As to the method: as §4, §1, §2, §3
Data set [3] concerns LXR. The experiment in a line: LXR activation (general statements, literature).
For data set [4], the system named is LXR. The experiment in a line: Ligand binding to LXR.
In data set [5] the test system is LXR. As to conditions: both LXR subtypes; compared with the natural ligands; cited from earlier work.
Data set [6] concerns LXR. The experiment in a line: Co-activator recruitment by LXR. The format is biochemical.
Data set [7] has as its target B1. The experiment in a line: X-ray co-crystal structure, LXRβ LBD with EPC and SRC1 peptide. As to the method:
Crystallization trials were carried out using the hanging drop method by mixing 2 μl of protein solution with 2 μl of well buffer. Both the LXRβ/ligand complexes crystallized out of 10-12% PEG 3350-8000 with 0.2M salt at 40° C. Usable LXRβ/T0901317 crystals were obtained from a number of salts including NaF, KF, NaCl, KCl, Na formate, Na acetate, and K acetate. The best LXRβ/EPC (24(S), 25-epoxycholesterol) crystals were obtained with ammonium sulfate and lithium sulfate salts. All crystals took 4-6 weeks to grow. Crystals were frozen in LN₂ after transferring stepwise to a cryo buffer containing the well buffer with 30% PEG 400.

Data set [8] concerns the molecule itself. The experiment in a line: X-ray crystal structures, homodimer in the asymmetric unit.

Positions count from the first letter of the chain named.

With `O=S(=O)(c1ccccc1)N(CC(F)(F)F)c1ccc(C(O)(C(F)(F)F)C(F)(F)F)cc1` [T317, N-(2,2,2-trifluoroethyl)-N-[4-(2,2,2-trifluoro-1-hydroxy-1-trifluoromethyl-ethyl)-phenyl]-benzenesulfonamide], the “transcriptional activity (SPAP) with H421A mutant” value on human LXRα LBD is recorded as “completely knocked out the activity”. For the same molecule, on human LXRβ LBD [1], the “transcriptional activity (SPAP) with H435A mutant” value is listed as “completely knocked out the activity”. For the same molecule, the “transcriptional activity (SPAP) with Y335W mutant” value on human LXRβ LBD [2] was “some modulation”. For the same molecule, in the data set with LXR [3], the “efficacy of LXR activation” value was “efficacious”. Besides, the “binding to LXR” value with LXR [4] was “bound tightly”. Moreover, the “potency in activating both LXRs” value in the data set on LXR [5] is “as potent”.
For `CC(C)CCC[C@@H](C)[C@H]1CC[C@H]2[C@@H]3CC=C4C[C@@H](O)CC[C@]4(C)[C@H]3CC[C@]12C` [cholesterol], the “binding to LXR” value in the data set with LXR [4] is on record as “do bind to LXR”. Besides, the recruitment of co-activator result with LXR [6] is reported as “do not recruit co-activator”.
Turning to CPSSHSSLTERHKILHRLLQQGSPS (also called SRC1(2); SRC peptide) [SRC1 peptide (second LXXLL motif of the nuclear receptor co-activator SRC-1)], the binding result in data set [7] was “binds”.
For B1, in [8], the binding result is reported as “binds”.

(Values after patent US20040018560A1, “Crystallized LXR polypeptide in complex with a ligand and screening methods employing same” (priority 2002, published 2004).)
